Publication PMC9820430, “New Affordable Methods for Large-Scale Isolation of Major Olive Secoiridoids and Systematic Comparative Study of Their Antiproliferative/Cytotoxic Effect on Multiple Cancer Cell Lines of Different Cancer Origins” (International Journal of Molecular Sciences, 2022)
Like-named read-outs stand apart in the source and are kept apart here. Marks after values point to notes of the source that are not given here.

Experiments:
HepG-2 = test: EdU incorporation cell proliferation assay, 24 h; type: cell-based, human; conditions: for % Inhibition ± SE of cell proliferation: 24 h at EC50, normalized with the control; for % EdU +ve ± SE (S-phase cells): 24 h treatment at EC50 concentration
Procedure: (§1) For this purpose, ten cancer cell lines (i.e., MDA-MB 231, SK-BR-3, MCF-7, A2058, SK-MEL-28, AGS, HepG-2, PANC-1, H1299 and Hela) originating from breast, melanoma, stomach, hepatic, pancreatic, lung and cervical tumors were analyzed in parallel with control samples (i.e., the same cells treated only with 0.2% (v/v) DMSO). […] Subsequently, the treated cells were allowed to incorporate 5-ethynyl-2′-deoxyuridine (EdU) into replicating DNA according to the protocol described in detail in the Experimental Section. EdU, a thymidine analog, can be incorporated into DNA in vivo and detected later by using copper-catalyzed azide–alkyne cycloaddition (click reaction) without prior DNA denaturation. The pool of cells in the S phase can be then easily detected by fluorescence (FL) microscopy or by flow cytometry by analyzing the incorporation of EdU in replicating DNA of single cells. In this study, after EdU incorporation, the nuclei of the entire cell population were stained with Hoechst and imaged by confocal microscopy (Experimental Section). EdU-positive nuclei, marked by green FL, as well as the total number of nuclei, marked by blue FL, were enumerated by applying the Icy image analysis algorithm on the digital images acquired by confocal microscopy.
(§2) Human cancer cells were plated onto sterile glass coverslips (10-mm diameter, 5161063, ThermoFisher Scientific, Waltham, MA, USA) in 24-well tissue culture plates, at a density 5 times the density of cells seeded in 96-well plate and at a final medium volume of 500 μL. In order to obtain homogeneous plating, 250 μL of the medium was added directly to the wells already containing coverslips. Using a tip perpendicularly, coverslips were pressed in order to ensure their attachment to the bottom of the well. The cells were then seeded by adding 250 μL of single-cell suspension drop by drop following a cross path. Immediately after seeding, the plate was shaken back and forth at least ten times to achieve homogeneous plating. The cells were allowed to adhere overnight (~16 h) at 37 °C and 5% (v/v) CO2. The next day, a volume of 500 μL fresh medium was added to each well and the treatment with OOPs was initiated by adding directly to the wells 2 μL of OOPs from the 500× stock in DMSO and immediately mixed afterward by pipetting. […] Control cells were prepared under the same experimental conditions using DMSO instead of the OOPs’ solutions in DMSO at the same final concentration (0.2% (v/v) DMSO). […] Each condition was performed in duplicate. After treatment with the OOPs, live proliferating mammalian cells were labeled with 5-ethynyl-2’-deoxyuridine (EdU), a nucleoside analog of thymidine, using the Cell proliferation kit III (EdU-FM, PK-CA724-488FM, Promokine, Heidelberg, Germany). More specifically, a 20 μM EdU solution from a 10 mM stock in DMSO was prepared in a fresh culture medium. Culture supernatant was removed from treated cells to leave only 250 μL. An equal volume of 20 μM EdU solution was added and mixed with the medium to obtain a 10 μΜ EdU final concentration. The treated cells were incubated for the desired time of pulse length (2–4 h) under conditions optimal for each cell type depending on each cell line’s doubling time. Following incubation, cells were washed twice with PBS, then fixed with 4% (w/v) paraformaldehyde in PBS for 15 min at room temperature (RT), and subsequently washed twice with 3% (w/v) BSA for 5 min each time. Cells were permeabilized by incubation (20 min, RT, in the dark) with 0.5% (v/v) Triton-X 100 in PBS. Following permeabilization the cells were washed twice with 3% (w/v) BSA in PBS and incubated for 30 min with the reaction cocktail, according to the instructions of the Cell proliferation kit III (EdU-488; FM). After staining for replicating DNA, the cells were washed three times with 3% (w/v) BSA in PBS, and were then incubated (10 min, at RT) with Hoechst 33342 in PBS (1:10.000) to visualize all the nuclei. […]

H1299 = test: EdU incorporation cell proliferation assay, 24 h; type: cell-based, human; conditions: for % Inhibition ± SE of cell proliferation: 24 h at EC50, normalized with the control; for % EdU +ve ± SE (S-phase cells): 24 h treatment at EC50 concentration
Procedure: as §1, §2

Hela = test: EdU incorporation cell proliferation assay, 24 h; type: cell-based, human; conditions: for % Inhibition ± SE of cell proliferation: 24 h at EC50, normalized with the control; for % EdU +ve ± SE (S-phase cells): 24 h treatment at EC50 concentration
Procedure: as §1, §2

SK-BR-3 [1] = test: EdU incorporation cell proliferation assay, 24 h; type: cell-based, human; conditions: for % Inhibition ± SE of cell proliferation: 24 h at EC50, normalized with the control; for % EdU +ve ± SE (S-phase cells): 24 h treatment at EC50 concentration
Procedure: as §1, §2

SK-MEL-28 = test: EdU incorporation cell proliferation assay, 24 h; type: cell-based, human; conditions: for % Inhibition ± SE of cell proliferation: 24 h at EC50, normalized with the control; for % EdU +ve ± SE (S-phase cells): 24 h treatment at EC50 concentration
Procedure: as §1, §2

MDA-MB 231 = test: EdU incorporation cell proliferation assay, 24 h; type: cell-based, human; conditions: for % Inhibition ± SE of cell proliferation: 24 h at EC50, normalized with the control; for % EdU +ve ± SE (S-phase cells): 24 h treatment at EC50 concentration
Procedure: as §1, §2

AGS = test: EdU incorporation cell proliferation assay, 24 h; type: cell-based, human; conditions: for % Inhibition ± SE of cell proliferation: 24 h at EC50, normalized with the control; for % EdU +ve ± SE (S-phase cells): 24 h treatment at EC50 concentration
Procedure: as §1, §2

PANC-1 = test: EdU incorporation cell proliferation assay, 24 h; type: cell-based, human; conditions: for % Inhibition ± SE of cell proliferation: 24 h at EC50, normalized with the control; for % EdU +ve ± SE (S-phase cells): 24 h treatment at EC50 concentration
Procedure: as §1, §2

SK-BR-3 [2] = conditions: cited from earlier work

Molecule | % Inhibition ± SE of cell proliferation (HepG-2) | % EdU +ve ± SE (S-phase cells) (HepG-2) | % Inhibition ± SE of cell proliferation (H1299) | % EdU +ve ± SE (S-phase cells) (H1299) | % Inhibition ± SE of cell proliferation (Hela) | % EdU +ve ± SE (S-phase cells) (Hela) | % Inhibition ± SE of cell proliferation (SK-BR-3 [1]) | % EdU +ve ± SE (S-phase cells) (SK-BR-3 [1]) | % Inhibition ± SE of cell proliferation (SK-MEL-28) | % EdU +ve ± SE (S-phase cells) (SK-MEL-28) | % Inhibition ± SE of cell proliferation (MDA-MB 231) | % EdU +ve ± SE (S-phase cells) (MDA-MB 231) | % Inhibition ± SE of cell proliferation (AGS) | % EdU +ve ± SE (S-phase cells) (AGS) | % Inhibition ± SE of cell proliferation (PANC-1) | % EdU +ve ± SE (S-phase cells) (PANC-1) | EC50 (SK-BR-3 [2]; five days of treatment, ref Menendez et al. (2007) 17, read-out: concentration reducing cell viability by 50%) | EC50 (SK-BR-3 [2]; 48 h treatment in HGF- and EGF-supplemented media, ref Siddique et al. (2019) 76, read-out: EC50) | EC50 (SK-BR-3 [2]; 5 day treatment, read-out: EC50)
COC(=O)C1=COC(C)[C@@H](C=O)[C@@H]1CC(=O)OCCc1ccc(O)c(O)c1 (mixture of isomers) [3a,b, oleuropein aglycone] | 28.4 ± 0.1% | 10.6 ± 3.1% | 29.1 ± 6.5% | 31.9 ± 5.9% | 24.3 ± 2.1% | 20.9 ± 3.5% | 16.9 ± 1.7% | 6.6 ± 3.5% | 24.7 ± 0.7 ^a % | 0.7 ± 0.3 ^a % | 21.5 ± 2.1% | 19.7 ± 3.1% | 28.9 ± 1.5 ^a % | 18.4 ± 1.5 ^a % | 23.6 ± 0.8% | 21.9 ± 5.3% | 47 µM |  | 
C/C=C(/C=O)[C@@H](CC=O)CC(=O)OCCc1ccc(O)cc1 [compound 1, oleocanthal] |  | 26.4 ± 1.5% |  | 14.0 ± 1.9% |  |  |  | 9.5 ± 3.9% |  | 15.0 ± 4.8 ^a % |  | 29.1 ± 2.3% |  | 16.2 ± 4.4 ^a % |  | 23.6 ± 5.8% |  | 27.3 µM | 
C/C=C(/C=O)[C@@H](CC=O)CC(=O)OCCc1ccc(O)c(O)c1 [compound 2, oleacein] |  |  | 47.8 ± 4.1% | 13.2 ± 3.5% | 23.6 ± 7.9% | 21.7 ± 6.5% | 16.2 ± 2.4% | 7.4 ± 0.7% | 20.3 ± 4.0% | 1.8 ± 0.4% | 15.7 ± 2.4% | 25.5 ± 4.1% | 31.0 ± 3.5% | 14.7 ± 0.4% |  | 37.6 ± 7.1% |  |  | 
ligstroside aglycone [4a,b] | 27.0 ± 1.1% | 12.0 ± 2.0% |  |  | 14.1 ± 6.3% | 31.2 ± 4.9% | 4.8 ± 3.1% | 18.8 ± 1.3% | 4.7 ± 4.6 ^a % | 20.8 ± 5.1 ^a % | 8.2 ± 1.8% | 33.0 ± 2.8% | 31.6 ± 2.6% | 14.0 ± 0.5% | 23.4 ± 2.7% | 22.1 ± 7.2% |  |  | 26 ± 6 µM
